Data from paper PMC5510229, “BCAT1 controls metabolic reprogramming in activated human macrophages and is associated with inflammatory diseases” (Nature Communications, 2017).

Legend:
[1] = system: human monocyte-derived macrophages (hMDMs); experiment: qRT-PCR / Western blot of activation markers in hMDMs; format: cell-based
[2] = system: mouse peritoneal macrophages; experiment: Mouse i.p. injection of LPS and ERG240, peritoneal macrophages analysed; format: in vivo, C57BL/6 mice
Description: Figure 4 Bcat1 inhibition blocks itaconate production in vivo and polarizes peritoneal macrophages. Mouse peritoneal macrophages from vehicle (saline), LPS-injected (1.5 mg kg^−1) or LPS+ERG240 (500 mg kg^−1)–injected mice were isolated and pooled 24 h following i.p. injection (n=6 mice per group). Irg1 protein (a), mRNA (b) levels, as well as itaconate measurements by GC/MS (c) are shown. […] Peritoneal macrophages were collected 24 h following the LPS injection. n=3 mice/group. (d) Protein–protein interaction (PPI) network in 100 top (97 annotated) differentially expressed genes between LPS and LPS+ERG240 treated mouse peritoneal macrophages illustrated by STRING (high confidence score=0.7). The IFN-inducible GTPase cluster is shown within a dashed circle. (e) Distribution of the fold changes and the FDR-adjusted P values (−log10 (FDR)) for the comparison between LPS and LPS+ERG240 treated macrophages. The IFN- inducible GTPase genes, M1-like, M2-like and extracellular matrix transcripts are shown in blue. (f) Fragments per kilobase of transcript per Million mapped reads (FPKM) values for Nos2, Il6 are shown in vehicle, LPS and LPS+ERG240-treated peritoneal macrophages. (g) FPKM values for Ifit1, Ifit2, Ifit3, Gbp1, Gbp2, Gbp4, Gbp7, Mrc1, Klf4, Cd36, Fn1, Mmp9, Gsn and Spp1. FPKM=1 is shown as a dashed line to denote minimal expression levels. All transcripts analysed by RNA-seq (f,g) show significant FPKM upon ERG240 treatment when compared to LPS group (FDR<10^−73). Error bars are s.e.m. Significance was tested using one-way ANOVA. *P<0.05 by ANOVA.
The procedure was performed by Washington Biotechnology Inc. (Baltimore, MD). […] Same dose of ERG240 was administered a second time, 8 h following the first injection of LPS. Peritoneal macrophages were harvested 24 h after the LPS injection and results from three groups (vehicle, LPS only, LPS+ERG240; n=6 mice in each group) were analysed in terms of IRG1 and itaconate level measurements.
For itaconate, cells pellets containing 1.5 × 10^6 hMDMs were quenched with 400 μl of methanol, previously chilled at −20 °C. After addition of 400 μl of cold (4 °C) ultrapure water, cell pellets were vortexed briefly and then allowed to stand for 10 min on ice. Following addition of 400 μl of GC/MS grade dichloromethane, previously chilled at −20 °C, samples were vortexed again and centrifuged at 14,000g for 10 min at 4 °C. The aqueous layer of the samples was collected and lyophilized. Dried materials were dissolved in 40 μl of MOX solution, which is prepared by allowing 20 mg of methoxamine HCl (Sigma Aldrich) to dissolve in 500 μl pyridine for 30 min at room temperature. Metabolites dissolved in MOX were incubated at 45 °C for 60 min, derivatized by adding 60 μl of N-methyl-N-(trimethylsilyl) trifluoroacetamide (MSFTA, Mecherey-Nagel) and incubated at 45 °C for 30 min. After a brief centrifugation, derivatized metabolites were transferred into clean GC/MS vials and analysed for the presence of itaconic acid (itaconate) using a 7890A GC System (Agilent Technologies) equipped with an Agilent J&W DB-5ms column (30 m, 0.25 mm, 0.25 μm), connected to an 5975C Triple-Axis MS Detector (Agilent Technologies) and outfitted with an autosampler. The MS source was held at 230 °C and the quadrupole at 150 °C. The GC oven temperature was held at 50 °C for 5 min, increased to 240 °C at a rate of 10 °C min^−1, held at 240 °C for 5 min and increased to 300 °C at a rate of 10 °C min^−1. A volume of 1 μl was injected in the system in a 1:3 split mode. The amount of itaconate present in the sample was determined after peak integration. For citrate, the frozen cell pellets were re-suspended in ice-cold ethanol-phosphate buffer. Cells were lysed by three freeze-thaw cycles and sonication. Samples were centrifuged and the supernatant was used for further analysis. […]

[3] = LPS 100 ng/ml + ERG240 20 mM, 3 h, qRT-PCR
[4] = LPS 1.5 mg kg^−1 + ERG240 500 mg kg^−1 i.p., 24 h
[5] = LPS+ERG240 vs LPS, peritoneal macrophages, 24 h

SMILES: CC(=O)C(C)CCC(=O)O (stereo not shown) [ERG240]
- NOS2 expression levels [1, 3]: significantly reduced
- TNF expression levels [1, 3]: significantly reduced
- IL-1β levels, long-term exposure ([1]; LPS + ERG240 20 mM, 24 h, Western blot): reduced IL-1β levels
- IRG1 expression in TNF-stimulated human macrophages ([1]; TNF 2 ng/ml, ERG240 20 mM, 8 h): comparable inhibitory effect
- itaconate in peritoneal macrophages, sequential treatment ([2]; ERG240 administered 3 h after the first LPS injection, collected 24 h): equally decreased
- Il6, Gbp4 expression levels, sequential treatment ([2]; ERG240 administered following 3 hours of LPS, qRT-PCR): inhibitory effect
- Irg1 mRNA and protein levels in peritoneal macrophages [2, 4]: reduction
- itaconate in peritoneal macrophages [2, 4]: significant decrease
- IFN-inducible GTPase signature genes and M1-like markers (Nos2, Il6), RNA-seq [2, 5]: down-regulated
- M2-like and extracellular matrix transcripts, RNA-seq [2, 5]: up-regulated
